Here are results for 13 compounds from ChEMBL document CHEMBL3045253, “Synthesis and in vitro antiproliferative activity of diphenyl(sulphonylpiperidin-4-yl)methanol derivatives” (Med Chem Res, 2010).

For one data set, the system named is HeLa. In words: Cytotoxicity against Homo sapiens (human) HeLa cells assessed as survival at 100 uM after 24 hr by MTT assay relative to control. The data set is classed as functional. The following applies: read-out: Survival. In general terms: Tetrazolium assays rely on reduction of a dye to a coloured formazan, in cell work by metabolically active cells.
The subject of the next data set is MCF7. Kind of data set: Cytotoxicity against Homo sapiens (human) MCF7 cells assessed as survival at 100 uM after 24 hr by MTT assay relative to control. The data set is classed as functional. The conditions noted are these: MCF7, 24 h, read-out: Survival.
Data set [1] in a line: Cytotoxicity against Homo sapiens (human) NF103 cells assessed as survival at 100 uM after 24 hr by MTT assay relative to control. The following applies: read-out: Survival. The data set is classed as cell-based.
Another data set deals with HT-29. Kind of data set: Cytotoxicity against Homo sapiens (human) HT-29 cells assessed as survival at 100 uM after 24 hr by MTT assay relative to control. The following applies: HT-29, 24 h, read-out: Survival. It counts as functional.
In a further data set the test system is HepG2. In words: Cytotoxicity against Homo sapiens (human) HepG2 cells assessed as survival at 100 uM after 24 hr by MTT assay relative to control. The data set is classed as functional. The following applies: HepG2, 24 h, read-out: Survival.

On to `O=S(=O)(c1ccc(Cl)cc1)N1CCC(C(O)(c2ccccc2)c2ccccc2)CC1`, for which the viability at 100 µM is 49.7% in the data set with HeLa, 61.4% with MCF7, 69.6% in the data set on HT-29 and 52.2% with HepG2. Moreover, the viability at 24 h, 100 µM in data set [1] was 53%.
For the compound `O=[N+]([O-])c1ccccc1S(=O)(=O)N1CCC(C(O)(c2ccccc2)c2ccccc2)CC1`, the viability at 100 µM with HeLa came out at 64.3%; in the data set on MCF7, 73.8%; with HT-29 it was 78.5%; with HepG2 it was 57.2%. Moreover, the viability at 24 h, 100 µM in data set [1] was found to be 63.4%.
The like results for `O=[N+]([O-])c1cccc(S(=O)(=O)N2CCC(C(O)(c3ccccc3)c3ccccc3)CC2)c1` were, in that order, 70.3%, 63.4%, 75%, 64.2% and 57.4%.
The like results for `O=[N+]([O-])c1ccc(S(=O)(=O)N2CCC(C(O)(c3ccccc3)c3ccccc3)CC2)cc1` were, in that order, 54%, 69.8%, 70.8%, 68.7% and 53.6%.
Consider `Cc1ccc(S(=O)(=O)N2CCC(C(O)(c3ccccc3)c3ccccc3)CC2)cc1`, for which the viability at 100 µM was found to be 71.2% in the data set with HeLa, 70.2% in the data set on MCF7, 45.1% in the data set with HT-29 and 62.7% in the data set with HepG2. Also, the viability at 24 h, 100 µM in data set [1] was found to be 65.6%.
For `Cc1noc(C)c1S(=O)(=O)N1CCC(C(O)(c2ccccc2)c2ccccc2)CC1`, the viability at 100 µM came out at 39.9% with HeLa, 38.7% in the data set with MCF7, 73.6% in the data set on HT-29 and 52.2% in the data set on HepG2. For the same compound, in data set [1], the viability at 24 h, 100 µM worked out at 53.8%.
Turning to `CS(=O)(=O)N1CCC(C(O)(c2ccccc2)c2ccccc2)CC1`, the viability at 100 µM was 64.4% with HeLa, 60.5% with MCF7, 74.7% in the data set on HT-29 and 60.9% with HepG2. In addition, in data set [1], the viability at 24 h, 100 µM amounted to 64%.
In the same order, the values of `O=S(=O)(c1ccccc1)N1CCC(C(O)(c2ccccc2)c2ccccc2)CC1` are 68.3%, 65.8%, 73.9%, 68.3% and 63%.
Turning to `CCCc1ccc(S(=O)(=O)N2CCC(C(O)(c3ccccc3)c3ccccc3)CC2)cc1`, the viability at 100 µM came out at 73.1% with HeLa, 68.7% with MCF7, 74.2% in the data set with HT-29 and 62.6% with HepG2. In data set [1], the viability at 24 h, 100 µM was 60%.
In the case of `CC(C)S(=O)(=O)N1CCC(C(O)(c2ccccc2)c2ccccc2)CC1`, the viability at 100 µM in the data set with HeLa was found to be 78.5%; in the data set on MCF7 it was 70.5%; in the data set with HT-29, 77.6%; in the data set with HepG2 it was 64.7%. Moreover, the viability at 24 h, 100 µM in data set [1] amounted to 60%.
With `O=S(=O)(c1ccc(Cl)cc1F)N1CCC(C(O)(c2ccccc2)c2ccccc2)CC1`, the viability at 100 µM in the data set with HeLa came out at 39.2%; with MCF7, 44.2%; with HT-29, 47.2%; in the data set with HepG2, 46.3%. Also, the viability at 24 h, 100 µM in data set [1] turned out to be 51.8%.
In the case of `O=S(=O)(CCl)N1CCC(C(O)(c2ccccc2)c2ccccc2)CC1`, the viability at 100 µM in the data set with HeLa stood at 56.1%; with MCF7 it was 66%; in the data set with HT-29, 45.2%; with HepG2, 59.1%. For the same compound, the viability at 24 h, 100 µM in data set [1] worked out at 53.5%.
Turning to `O=S(=O)(Cc1ccccc1)N1CCC(C(O)(c2ccccc2)c2ccccc2)CC1`, the viability at 100 µM with HeLa turned out to be 70.1%; with MCF7, 69.7%; in the data set with HT-29 it was 76.5%; with HepG2, 39.1%. Also, the viability at 24 h, 100 µM in data set [1] turned out to be 59.8%.
